# pIC50: −log10 of the molar value.
# Tests used:
# [1] = system: KRAS-G12D mutant cell line (A-427); test: Growth inhibition activity on KRAS-G12D mutant cell line (A-427), CellTiter-Glo 3D; type: cell-based; settings: Homo sapiens, 72 h, A-427 cells, 3-day culture with compound, read-out: A427 CTX IC50
# Method: Test Example 2: A measurement test of growth inhibition activity on KRAS-G12D mutant cell line (A-427) (in vitro) A-427 cells (ATCC, Cat #: HTB-53), which are a KRAS-G12D mutant human lung cancer cell line, were suspended in a 10% fetal bovine serum-containing E-MEM medium (manufactured by Fujifilm Wako Pure Chemical Corporation). The cell suspension was seeded into each well of a 384-well U bottom microplate and cultured in an incubator containing 5% CO2 gas at 37° C. for 1 day.
# The compound of the present invention was dissolved in DMSO, and the test compound was diluted with DMSO to give a concentration 500 times the final concentration. The solution of the test compound in DMSO was diluted with the medium used for suspending cells and added to each well of the cell-culture plate to give a DMSO final concentration of 0.2%, followed by culture in an incubator containing 5% CO2 gas at 37° C. for another 3 days. The cell count after a 3-day culture in the presence of the compound was measured using CellTiter-Glo 3D Reagent (manufactured by Promega Corporation).
# All wells were added with CellTiter-Glo 3D Reagent and mixed for 10 minutes. 30 minutes after mixing, luminescence was measured by a plate reader. The growth inhibition rate was calculated from the following equation, and the concentration of the test compound at which 50% inhibition was achieved (IC50 (μM)) was determined.
# Growth Inhibition Rate(%)=(C−T)/(C)×100
# T: the emission intensity in a well into which a test compound was added.
# C: the emission intensity in a well into which a test compound was not added.
# KRAS G12D = KRAS G12D (Homo sapiens (Human), UniProt P01116, G12D); test: Inhibitory activity on KRAS G12D nucleotide (GDP-GTP) exchange reaction in vitro (SOS1-dependent, BODIPY FL GDP); type: biochemical; settings: BODIPY FL GDP-bound KRAS G12D, compound 25° C. 1 hour, then SOS1 and GMPPNP 30 minutes
# Source text: Test Example 1: Evaluation of inhibitory activity of compounds on KRAS G12D nucleotide (GDP-GTP) exchange reaction in vitro
# Recombinant KRAS G12D (conjugated N-terminus His6-tag, TEV protease cleavage site and KRAS G12D residues 1-169 (SEQ ID NO: 1), prepared by the method described as below) and cleaved recombinant SOS1 (residues 564-1049(SEQ ID NO: 2), prepared by the method as below) proteins were expressed in E. coli and purified by affinity chromatography.
# To prepare the recombinant KRAS G12D, the codon-optimized DNA sequence for the recombinant KRAS G12D (conjugated N-terminus His6-tag, TEV protease cleavage site and KRAS G12D residues 1-169 (SEQ ID NO: 3))was synthesized by GeneArt Technology (Life Technologies, Carlsbad, CA, US). The construct was subcloned into the expression vector pET28a and transformed into Escherichia coli BL21 (DE3) strains (Novagen, Madison, WI, US).
# The transformed strain was cultivated in 2 L Luria Broth medium with 25 μg/mL kanamycin at a temperature of 37° C. to a density of 0.6 (OD600), then induced for expression with […] IPTG and further cultivated for 4 h. The cell pellet was resuspended in ice-cold lysis buffer containing 50 mM Tris-HCl (pH 7.5), 200 mM NaCl, and 100 μM TCEP (tris(2-carboxyethyl)phosphine).
# After sonication, the disrupted debris was removed by centrifugation. The supernatant was applied on to Ni-NTA affinity gels, and the recombinant human KRAS (G12D) eluted fraction was collected. The buffer of the collected fraction was exchanged to the buffer containing 50 mM Tris-HCl (pH 7.5), 200 mM NaCl, 10% Glycerol, and 5 mM DTT by PD-10 column (GE-Healthcare, Chicago, IL, US).
# To prepare the cleaved recombinant SOS1, the codon optimized DNA sequences for the recombinant SOS1 (residues 564-1049 with a conjugated N-terminus His6-tag and TEV protease cleavage site (SEQ ID NO: 4)) was synthesized by GeneArt Technology (Life Technologies). The construct was subcloned into the expression vector pET28a and transformed into Escherichia coli BL21 (DE3) strains (Novagen, Madison, WI, USA).
# The transformed strain was cultivated in 2 L Terrific Broth medium with 25 μg/mL kanamycin at a temperature of 37° C. to a density of 0.8 (OD600), then shifted to a temperature of 16° C., induced for expression with […] IPTG, and further cultivated for 16 h. The cell pellet was resuspended in ice-cold lysis buffer containing 50 mM Tris-HCl (pH 7.5), 200 mM NaCl, and 100 μM TCEP.
# After sonication, the disrupted debris was removed by centrifugation. The supernatant was applied on to Ni-NTA affinity gels, and the recombinant human SOS1 eluted fraction was collected. Then, His6-tagged TEV protease was added to the collected fraction, dialyzed with the ice-cold lysis buffer for 16 h at a temperature of 4° C., and applied on to Ni-NTA affinity gels. The flow-through fraction containing the tag-cleavaged recombinant human SOS1 was collected. The buffer of the collected fraction was exchanged to the buffer containing 50 mM Tris-HCl (pH 7.5), 200 mM NaCl, 10% Glycerol, and 5 mM DTT by PD-10 column (GE-Healthcare).
# To prepare BODIPY FL (fluorescent dye) GDP-bound KRAS G12D protein, 50 μM KRAS G12D protein was incubated with 0.5 mM BODIPY FL GDP in a loading buffer (20 mM Tris-HCl (pH 7.5), 50 mM NaCl, 1 mM DTT and 2.5 mM EDTA) for 1 hour on ice. After the incubation, MgCl2 was added to a final concentration of 10 mM, followed by incubation at room temperature for 30 minutes.
# The mixture was allowed to pass through a NAP-5 column to remove free nucleotides and purified BODIPY FL GDP-bound KRAS G12D protein was used for compound evaluation.
# For the measurement of the inhibitory activity of compounds on GDP-GTP exchange rate of recombinant KRAS G12D, BODIPY FL GDP-bound KRAS G12D protein was incubated with various concentrations of compound in a reaction buffer (20 mM Tris-HCl (pH 7.5), 100 mM NaCl, 1 mM MgCl2, 2 mM DTT, 0.1% Tween 20) at 25° C. for 1 hour. […]
# Sequence of KRAS G12D (P01116 other isoform, or with tags, fused parts or gaps G12D (already in the parent)): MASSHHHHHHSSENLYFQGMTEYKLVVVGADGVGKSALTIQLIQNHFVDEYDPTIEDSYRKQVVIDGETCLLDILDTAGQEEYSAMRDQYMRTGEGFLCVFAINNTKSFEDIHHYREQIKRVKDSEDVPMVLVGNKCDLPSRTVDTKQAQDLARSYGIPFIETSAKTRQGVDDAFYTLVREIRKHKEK
SMILES,pIC50 [1],pIC50 (KRAS G12D)
"CN(C)CC1(COc2nc3c(c(N4CC5CCC(C4)N5)n2)CCN(c2cc(O)cc4cccc(Br)c24)C3)CC1(C)C (stereo not shown) [Example 30, 4-(4-(3,8-diazabicyclo[3.2.1]octan-3-yl)-2-((1-((dimethylamino)methyl)-2,2-dimethylcyclopropyl)methoxy)-5,8-dihydropyrido[3,4-d]pyrimidin-7(6H)-yl)-5-bromonaphthalen-2-ol]",5.86,7.93
"CN1CCC[C@H]1COc1nc2c(c(N3CC4CCC(C3)N4)n1)CCN(c1cc(O)cc3cccc(Br)c13)C2 [Example 31, 4-(4-(3,8-diazabicyclo[3.2.1]octan-3-yl)-2-(((S)-1-methylpyrrolidin-2-yl)methoxy)-5,8-dihydropyrido[3,4-d]pyrimidin-7(6H)-yl)-5-bromonaphthalen-2-ol]",5.71,7.75
"CO[C@@H]1C[C@@H](COc2nc3c(c(N4CC5CCC(C4)N5)n2)CCN(c2cc(O)cc4cccc(Br)c24)C3)N(C)C1 [Example 32, 4-(4-(3,8-diazabicyclo[3.2.1]octan-3-yl)-2-(((2S,4R)-4-methoxy-1-methylpyrrolidin-2-yl)methoxy)-5,8-dihydropyrido[3,4-d]pyrimidin-7(6H)-yl)-5-bromonaphthalen-2-ol]",5.97,8.49
"C#Cc1cccc2cc(O)cc(C3Cc4nc(OCC5(CN6CCOCC6)CC5)nc(N5CC6CCC(C5)N6)c4CO3)c12 (stereo not shown) [Example 33, 4-(4-(3,8-diazabicyclo[3.2.1]octan-3-yl)-2-((1-(morpholinomethyl)cyclopropyl)methoxy)-7,8-dihydro-5H-pyrano[4,3-d]pyrimidin-7-yl)-5-ethynylnaphthalen-2-ol]",5.90,7.95
"C=Cc1cccc2cc(O)cc(C(=O)N3Cc4nc(OCC5(CN6CC[C@@H](F)C6)CC5)nc(N5CC6CCC(C5)N6)c4C3)c12 [Example 34, (4-(3,8-diazabicyclo[3.2.1]octan-3-yl)-2-((1-(((R)-3-fluoropyrrolidin-1-yl)methyl)cyclopropyl)methoxy)-5,7-dihydro-6H-pyrrolo[3,4-d]pyrimidin-6-yl) (3-hydroxy-8-vinylnaphthalen-1-yl)methanone]",5.15,7.85
"C=Cc1cccc2cc(O)cc(C(=O)N3Cc4nc(OCC5(CN6CCOCC6)CC5)nc(N5CC6CCC(C5)N6)c4C3)c12 [Example 35, (4-(3,8-diazabicyclo[3.2.1]octan-3-yl)-2-((1-(morpholinomethyl)cyclopropyl)methoxy)-5,7-dihydro-6H-pyrrolo[3,4-d]pyrimidin-6-yl) (3-hydroxy-8-vinylnaphthalen-1-yl) methanone]",5.05,7.87
"C#Cc1cccc2cc(N)nc(N3CCc4c(nc(OCC5(CN(C)C)CC5)nc4N4CC5CCC(C4)N5)C3)c12 [Example 36, 1-(4-(3,8-diazabicyclo[3.2.1]octan-3-yl)-2-((1-((dimethylamino)methyl)cyclopropyl)methoxy)-5,8-dihydropyrido[3,4-d]pyrimidin-7(6H)-yl)-8-ethynylisoquinolin-3-amine]",< 5.00,7.56
"CN(C)CC1(COc2nc3c(c(N4CC5CCC(C4)N5)n2)COC(c2cc(O)cc4cccc(Br)c24)C3)CC1 (stereo not shown) [Example 37, 4-(4-(3,8-diazabicyclo[3.2.1]octan-3-yl)-2-((1-((dimethylamino)methyl)cyclopropyl)methoxy)-7,8-dihydro-5H-pyrano[4,3-d]pyrimidin-7-yl)-5-bromonaphthalen-2-ol]",5.53,8.02

# Reference: patent publication US20230348495A1, “A COMPOUND HAVING INHIBITORY ACTIVITY AGAINST KRAS G12D MUTATION” (TAIHO PHARMACEUTICAL CO., LTD., priority 2019, published 2023)
